# Assay results from patent US20090311279A1, “Colorectal Cancer Antigen” (National Institutes of Health, priority 2004, published 2009).
# Columns and labels:
# Type in all cases: cell-based, human
# [1] = tested on: CD4+ clone C111 T cells; 1847 CD40L B cells (HLA-DRβ1*1301); assay: Peptide-pulsed 1847 CD40L B cells, IFN-γ release from clone C111 by ELISA; details: 18 hrs
# Description: (§1) Peptides of 20 or 21 amino acids in length that overlapped by 15 amino acids that were encoded by the long open reading frame of the original cDNA clone that was isolated were synthesised by solid-phase method using a peptide synthesiser (AMS 422; Gilson Co., Inc. Middleton, Wis.). The purity of the peptides was verified by mass spectrometry (Tuft's Core Facility, Boston, Mass.). […] After three hours, 1-5×10^4 T cells were added to the wells in 150 μl/well of medium and incubated for 18 hours at 37° C. and 5% CO2, followed by measurement of INF-γ release by ELISA.
# (§2) Peptides that were 20 or 21 amino acids in length and that overlapped by either 14 or 16 amino acids, were than synthesised and tested for their ability to sensitise target cells for recognition by C111 T cells. Since autologous normal B cells could not be efficiently expanded, allogeneic normal B cells expressing either DRβ1*0402 or DRβ1*1301 were used to carry out these assays.
# (§3) The 1681 and 1847 CD40L stimulated normal B cell lines shared expression of HLA-DRβ1*0402 and HLA-DRβ1*1301 molecules, respectively, with the autologous tumour cell line. These cells were incubated with the panel of peptides and then tested for their ability to stimulate cytokine release from C111 T cells.
# [2] = tested on: CD4+ clone C111 T cells; 1681 CD40L B cells (HLA-DRβ1*0402); assay: Peptide-pulsed 1681 CD40L B cells, IFN-γ release from clone C111 by ELISA; details: 18 hrs
# Description: as §1, §2, §3
# C111 T cells = assay: Peptide pulsing of target cells expressing HLA-DRβ1*0402 or 1301, cytokine release from C111 T cells; details: 1681 and 1847 CD40L B cells pulsed with peptide
# Description: Peptides of 20 or 21 amino acids in length that overlapped by 15 amino acids that were encoded by the long open reading frame of the original cDNA clone that was isolated were synthesised by solid-phase method using a peptide synthesiser (AMS 422; Gilson Co., Inc. Middleton, Wis.). The purity of the peptides was verified by mass spectrometry (Tuft's Core Facility, Boston, Mass.). Allogeneic B cells (1×10^5 cells/well) that expressed either the DRβ1*0402 or the DRβ1*1301 molecules were incubated with 50 μg/ml in 100 μl/well of ISCOVE'S medium plus 10% HS in flat bottom-96-well plates. After three hours, 1-5×10^4 T cells were added to the wells in 150 μl/well of medium and incubated for 18 hours at 37° C. and 5% CO2, followed by measurement of INF-γ release by ELISA.
# as §2
# The 1681 and 1847 CD40L stimulated normal B cell lines shared expression of HLA-DRβ1*0402 and HLA-DRβ1*1301 molecules, respectively, with the autologous tumour cell line. […]
# [3] = 1847 CD40LB pulsed with peptide 12.5 μg/ml
# [4] = 1847 CD40LB pulsed with peptide 25 μg/ml
# [5] = 1847 CD40LB pulsed with peptide 26.25 μg/ml
# [6] = 1847 CD40LB pulsed with peptide 50 μg/ml
# [7] = 1847 CD40LB pulsed with peptide 100 μg/ml
# [8] = 1681 CD40LB pulsed with peptide 12.5 μg/ml
# [9] = 1681 CD40LB pulsed with peptide 25 μg/ml
# [10] = 1681 CD40LB pulsed with peptide 26.25 μg/ml
# [11] = 1681 CD40LB pulsed with peptide 50 μg/ml
# [12] = 1681 CD40LB pulsed with peptide 100 μg/ml
Sequence,"IFN-γ release from clone C111 [1, 3] [pg/mL]","IFN-γ release from clone C111 [1, 4] [pg/mL]","IFN-γ release from clone C111 [1, 5] [pg/mL]","IFN-γ release from clone C111 [1, 6] [pg/mL]","IFN-γ release from clone C111 [1, 7] [pg/mL]","IFN-γ release from clone C111 [2, 8] [pg/mL]","IFN-γ release from clone C111 [2, 9] [pg/mL]","IFN-γ release from clone C111 [2, 10] [pg/mL]","IFN-γ release from clone C111 [2, 11] [pg/mL]","IFN-γ release from clone C111 [2, 12] [pg/mL]",cytokine release from C111 T cells (C111 T cells)
ASAFEIFSTFPPTLYQDDTL [COA-1-derived overlapping peptide],< 7.8,< 7.8,< 7.8,< 7.8,< 7.8,,,,,,
DDTLTLQAAGLVPKAALLLRA [COA-1-derived overlapping peptide],< 7.8,< 7.8,< 7.8,33,22,< 7.8,< 7.8,< 7.8,16,11,
FSTFPPTLYQDDTLTLQAAG (listed as Homo sapiens) [COA-1-derived overlapping peptide],79,296,< 7.8,397,226,< 7.8,69,< 7.8,236,105,stimulated significant cytokine release
LQAAGLVPKAALLLRARRAP [COA-1-derived overlapping peptide],< 7.8,< 7.8,< 7.8,32,52,< 7.8,< 7.8,< 7.8,12,21,
TLYQDDTLTLQAAGLVPKAA (listed as Homo sapiens) [COA-1-derived overlapping peptide],< 7.8,< 7.8,< 7.8,326,79,< 7.8,< 7.8,< 7.8,159,51,stimulated significant cytokine release
